# Target: T1, apelin receptor (APJ) (Homo sapiens, UniProt P35414)
# T1 sequence (P35414 1-380): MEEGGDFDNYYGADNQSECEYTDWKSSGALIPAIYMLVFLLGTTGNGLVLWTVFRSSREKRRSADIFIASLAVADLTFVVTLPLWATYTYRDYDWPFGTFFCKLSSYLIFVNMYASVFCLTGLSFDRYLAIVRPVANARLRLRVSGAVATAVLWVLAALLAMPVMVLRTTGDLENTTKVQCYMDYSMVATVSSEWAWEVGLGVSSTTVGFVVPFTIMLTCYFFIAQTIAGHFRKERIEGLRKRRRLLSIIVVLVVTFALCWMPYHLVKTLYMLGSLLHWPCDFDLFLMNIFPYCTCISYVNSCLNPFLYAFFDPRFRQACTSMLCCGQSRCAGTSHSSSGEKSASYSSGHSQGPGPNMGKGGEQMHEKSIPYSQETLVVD
# Experiment: In vitro apelin agonist activity (methods of Giddings et al., Apelin-13 as positive control)
# Assay type: cell-based
# Conditions: in vitro apelin agonist activity, methods of Giddings et al., Apelin-13 as positive control; read-out: EC50 (nM) Ave
# Description: Characterization of the Apelin Agonist Activity of the Compounds
# 1:39-47, the contents of which are hereby incorporated by reference in its entirety. Using the methods described in Giddings et al. and Apelin-13 as a positive control.
row,SMILES,EC50 [nM]
1,"COc1cccc(OC)c1-c1cc(C(=O)N[C@@H](CCN2CCCCCC2)CC(=O)OC(C)(C)C)nn1C1CCCC1 [compound 319, tert-butyl (3S)-5-(azepan-1-yl)-3-{[1-cyclopentyl-5-(2,6-dimethoxyphenyl)-1H-pyrazol-3-yl]formamido}pentanoate]",3510
2,"O=C(C[C@H](CCN1CCCC(F)(F)C1)NC(=O)c1cc(-c2ccccc2C(F)(F)F)n(C2CCCC2)n1)Nc1nccs1 [compound 426, (3S)-3-({1-cyclopentyl-5-[2-(trifluoromethyl)phenyl]-1H-pyrazol-3-yl}formamido)-5-(3,3-difluoropiperidin-1-yl)-N-(1,3-thiazol-2-yl)pentanamide]",10.6
3,"C[C@]1(F)CCCN(CC[C@@H](CC(=O)O)NC(=O)c2cc(-c3ccccc3C(F)(F)F)n(C3CCCC3)n2)C1 [compound 614, (3S)-3-({1-cyclopentyl-5-[2-(trifluoromethyl)phenyl]-1H-pyrazol-3-yl}formamido)-5-[(3S)-3-fluoro-3-methylpiperidin-1-yl]pentanoic acid]",41
4,"COc1cccc(OC)c1-c1cc(C(=O)N[C@@H](CCc2ccccc2)C(=O)O)nn1C1CCCC1 [compound 389, (2S)-2-{[1-cyclopentyl-5-(2,6-dimethoxyphenyl)-1H-pyrazol-3-yl]formamido}-4-phenylbutanoic acid]",> 10000
5,"COc1cccc(OC)c1-c1cc(C(=O)N[C@@H](CCN2CCCCC2)CC(=O)N(C)C2CCC2)nn1C1CCCC1 [compound 331, (3S)-N-cyclobutyl-3-{[1-cyclopentyl-5-(2,6-dimethoxyphenyl)-1H-pyrazol-3-yl]formamido}-N-methyl-5-(piperidin-1-yl)pentanamide]",353
6,"COc1cccc(OC)c1-c1cc(C(=O)N[C@@H](CCN2C3CCC2CC3)CC(=O)OC(C)(C)C)nn1C1CCCC1 [compound 320, tert-butyl (3S)-5-{7-azabicyclo[2.2.]heptan-7-yl}-3-{[1-cyclopentyl-5-(2,6-dimethoxyphenyl)-1H-pyrazol-3-yl]formamido}pentanoate]",> 10000
7,"CCC(CC)n1nc(C(=O)N[C@@H](CCN2CCCCC2)CC(=O)NC2CCC2)cc1-c1c(OC)cccc1OC [compound 357, (3S)-N-cyclobutyl-3-{[5-(2,6-dimethoxyphenyl)-1-(pentan-3-yl)-1H-pyrazol-3-yl]formamido}-5-(piperidin-1-yl)pentanamide]",> 10000
8,"COc1cccc(OC)c1-c1cc(C(=O)N[C@@H](CCN2CCCCC2)Cc2nnnn2C)nn1C1CCCC1 [compound 445, 1-cyclopentyl-5-(2,6-dimethoxyphenyl)-N-[(2S)-1-(1-methyl-1H-1,2,3,4-tetrazol-5-yl)-4-(piperidin-1-yl)butan-2-yl)-1H-pyrazole-3-carboxamide]",2830
9,"O=C(O)C[C@H](CCN1C(=O)CCC1=O)NC(=O)c1cc(-c2ccccc2C(F)(F)F)n(C2CCCC2)n1 [compound 643, (3S)-3-({1-cyclopentyl-5-[2-(trifluoromethyl)phenyl]-1H-pyrazol-3-yl}formamido)-5-(2,5-dioxopyrrolidin-1-yl)pentanoic acid]",182
10,"COc1cccc(OC)c1-c1cc(C(=O)N[C@@H](/C=C/c2ccc(F)cc2)CC(=O)NC2CCC2)nn1C1CCCC1 [compound 415, (3R,4E)-N-cyclobutyl-3-{[1-cyclopentyl-5-(2,6-dimethoxyphenyl)-1H-pyrazol-3-yl]formamido}-5-(4-fluorophenyl)pent-4-enamide]",292
11,"COc1cccc(OC)c1-c1cc(C(=O)N[C@@H](CC2CCCC2)C(=O)O)nn1C1CCCC1 [compound 393, (2S)-3-cyclopentyl-2-{[1-cyclopentyl-5-(2,6-dimethoxyphenyl)-1H-pyrazol-3-yl]formamido}propanoic acid]",424
12,"Cc1cnn(CC[C@@H](CC(=O)NC2CCC2)NC(=O)c2cc(-c3ccccc3C(F)(F)F)n(C3CCCC3)n2)c1 [compound 501, (3S)-N-cyclobutyl-3-({1-cyclopentyl-5-[2-(trifluoromethyl)phenyl]-1H-pyrazol-3-yl}formamido)-5-(4-methyl-1H-pyrazol-1-yl)pentanamide]",26
13,"CC(C)CN(C)CC[C@@H](CC(=O)NC1CCC1)NC(=O)c1cc(-c2ccccc2C(F)(F)F)n(C2CCCC2)n1 [compound 493, (3S)-N-cyclobutyl-3-({1-cyclopentyl-5-[2-(trifluoromethyl)phenyl]-1H-pyrazol-3-yl}formamido)-5-[methyl(2-methylpropyl)amino]pentanamide]",24
14,"O=C(CCNC(=O)c1cc(-c2ccccc2C(F)(F)F)n(C2CCCC2)n1)Nc1nccs1 [compound 449, 3-({1-cyclopentyl-5-[2-(trifluoromethyl)phenyl]-1H-pyrazol-3-yl}formamido)-N-(1,3-thiazol-2-yl)propanamide]",12700
15,"O=C(O)C[C@H](CCN1CCCC(F)(F)C1)NC(=O)c1cc(-c2ccccc2C(F)(F)F)n(CC2CCC2)n1 [compound 571, (3S)-3-{[1-(cyclobutylmethyl)-5-[2-(trifluoromethyl)phenyl]-1H-pyrazol-3-yl}formamido}-5-(3,3-difluoropiperidin-1-yl)pentanoic acid]",130
16,"CC(C(=O)O)[C@H](CCN1CC2C(C1)C2(F)F)NC(=O)c1cc(-c2ccccc2C(F)(F)F)n(C2CCCC2)n1 (stereo partly drawn) [compound 635, (2R,3S)-3-({1-cyclopentyl-5-[2-(trifluoromethyl)phenyl]-1H-pyrazol-3-yl}formamido)-5-{6,6-difluoro-3-azabicyclo[13.1.0]hexan-3-yl}-2-methylpentanoic acid]",13
17,"O=C(O)C[C@@H](NC(=O)c1cc(-c2ccccc2C(F)(F)F)n(C2CCCC2)n1)C(=O)Nc1ccc(F)cc1 [compound 560, (3R)-3-({1-cyclopentyl-5-[2-(trifluoromethyl)phenyl]-1H-pyrazol-3-yl}formamido)-3-[(4-fluorophenyl)carbamoyl]propanoic acid]",738
18,"C[C@@H](C(=O)O)[C@H](CCN1CCCC(F)(F)C1)NC(=O)c1cc(-c2ccccc2C(F)(F)F)n(C2CCCC2)n1 [compound 597, (2R,3S)-3-({1-cyclopentyl-5-[2-(trifluoromethyl)phenyl]-1H-pyrazol-3-yl}formamido)-5-(3,3-difluoropiperidin-1-yl)-2-methylpentanoic acid]",23
19,"O=C(C[C@H](CCN1CCCC(F)(F)C1)NC(=O)c1cc(-c2ccccc2C(F)(F)F)n(C2CCCC2)n1)NC1CCC1 [compound 425, (3S)-N-cyclobutyl-3-({1-cyclopentyl-5-[2-(trifluoromethyl)phenyl]-1H-pyrazol-3-yl}formamido)-5-(3,3-difluoropiperidin-1-yl)pentanamide]",10.9
20,"O=C(C[C@H](CCN1CCCC(F)(F)C1)NC(=O)c1cc(-c2ccncc2Cl)n(C2CCCC2)n1)NC1CCC1 [compound 457, (3S)-3-{[5-(3-chloropyridin-4-yl)-1-cyclopentyl-1H-pyrazol-3-yl]formamidol}-N-cyclobutyl-5-(3,3-difluoropiperidin-1-yl)pentanamide]",1320
21,"CCN(C(=O)c1cc(-c2ccccc2OC(F)(F)F)n(C2CCCC2)n1)[C@@H](CCN1CCCCC1)CC(=O)NC1CCC1 [compound 344, (3S)-N-cyclobutyl-3-(1-{1-cyclopentyl-5-[2-(trifluoromethoxy)phenyl]-1H-pyrazol-3-yl}-N-ethylformamido)-5-(piperidin-1-yl)pentanamide]",2370
22,"O=C(O)C[C@H](CCN1CCCC(F)(F)C1)NC(=O)c1cc(-c2ccccc2C(F)(F)F)n(C2CCC2)n1 [compound 552, (3S)-3-({1-cyclobutyl-5-[2-(trifluoromethyl)phenyl]-1H-pyrazol-3-yl}formamido)-5-(3,3-difluoropiperidin-1-yl)pentanoic acid]",167
23,"O=C(O)C[C@H](CCN1CCC(C(F)(F)F)C1)NC(=O)c1cc(-c2ccccc2C(F)(F)F)n(C2CCCC2)n1 (stereo partly drawn) [compound 578, (3S)-3-({1-cyclopentyl-5-[2-(trifluoromethyl)phenyl]-1H-pyrazol-3-yl}formamido)-5-[3-(trifluoromethyl)pyrrolidin-1-yl]pentanoic acid]",78
24,O=C(N[C@@H](CCN1CCCC(F)(F)C1)Cc1nnc(C(F)(F)F)[nH]1)c1cc(-c2ccccc2Cl)n(C2CCCC2)n1 [compound 459],243
25,"O=C(O)C[C@@H](NC(=O)c1cc(-c2ccccc2C(F)(F)F)n(C2CCCC2)n1)C(=O)NC1CCCCC1 [compound 544, (3R)-3-(cyclohexylcarbamoyl)-3-({1-cyclopentyl-5-[2-(trifluoromethyl)phenyl]-1H-pyrazol-3-yl]formamido)propanoic acid]",205
26,"O=C(O)C[C@H](CCN1CCCC(F)(F)C1)NC(=O)c1cc(-c2ccccc2Cl)n(C2CCCC2)n1 [compound 433, (3S)-3-{[5-(2-chlorophenyl)-1-cyclopentyl-1H-pyrazol-3-yl]formamido}-5-(3,3-difluoropiperidin-1-yl)pentanoic acid]",151
27,CC(F)(F)c1ccccc1-c1cc(C(=O)N[C@@H](CCN2CC(F)(F)C2)CC(=O)O)nn1C1CCCC1 [compound 589],171
28,"CC(F)(F)c1ccccc1-c1cc(C(=O)N[C@@H](CCN2CCCC(F)(F)C2)CC(=O)Nc2nccs2)nn1C1CCCC1 [compound 428, (3S)-3-({1-cyclopentyl-5-[2-(1,1-difluoroethyl)phenyl]-1H-pyrazol-3-yl}formamido)-5-(3,3-difluoropiperidin-1-yl)-N-(1,3-thiazol-2-yl)pentanamide]",7.5
